Experimental data taken from patent US20190350940A1, “PLATINUM COMPOUNDS, COMPOSITIONS, AND USES THEREOF” (priority 2015, published 2019).

Assay: Vial selection: clear versus amber (light versus dark)
Format: physicochemical
Settings: 5 mM citrate buffer saline pH about 4, room temperature 24 hours
Procedure: To compare light versus dark conditions, Compound 8 was formulated in 5 mM citrate buffer saline at pH about 4 and placed into two separate vials (one clear and the other amber). The formulations were stored at room temperature for 24 hours and the amount of Impurity 1 and Impurity 2 was observed. From the FIGS. 4 and 5, it can be seen that exposing the Compound 8 solution to light in a clear vial caused an increase in the amount of Impurity 1 in comparison to the solution contained in an amber vial (˜10% Impurity 1 compared to ˜0.75% Impurity 1). […] Also, from these experiments it was concluded that the formation of Impurity 2 is not photosensitive but dependent upon the pH of the formulation.

## CC(=O)[O][Pt]([NH2])([NH2])([Cl])([Cl])[O]C(=O)NCCCCCN1C(=O)C=CC1=O [Compound 8]
Amber vial (dark)
  Amount of Impurity 1: ~0.75%
Clear vial (light)
  Amount of Impurity 1: ~10%
  Amount of Impurity 2: 0.5%
